Measured values: patent publication US10940139B2, “Compounds that interact with the Ras superfamily for the treatment of cancers, inflammatory diseases, rasopathies, and fibrotic disease” (Shy Therapeutics LLC, priority 2017, dated 2021)

Legend:
[1] = tested on: TNFα production in RAW 264.7 macrophage cell line; experiment: Mouse TNF alpha quantification assay (LPS-stimulated macrophages, ELISA); assay type: cell-based; conditions: RAW264.7, RAW 264.7 murine leukemia virus transformed macrophage cell lines, LPS stimulation, read-out: TNF-α % Inhibition at 30 μM
[2] = tested on: IL6 production in RAW 264.7 macrophage cell line; experiment: Mouse IL6 quantification assay (LPS-stimulated macrophages, ELISA); assay type: cell-based; conditions: RAW264.7, RAW 264.7 murine leukemia virus transformed macrophage cell lines, LPS stimulation, read-out: IL-6 % Inhibition at 30 μM

Compound | inhibition at 30 µM [1] [%] | inhibition at 30 µM [2] [%]
CC(C)NC(=O)Nc1cccc(C(=O)Nc2nnc(-c3ccccn3)[nH]2)c1 [drawing 1926] | 1 to 25 | 0
O=C(Cc1ccc(-n2cnnn2)cc1)Nc1nnc(-c2ccccn2)[nH]1 [drawing 1927] | 1 to 25 | 0
COc1cccc(CCC(=O)Nc2nnc(-c3ccccn3)[nH]2)c1 [drawing 1928] | 1 to 25 | 0
COc1ccc(CCC(=O)Nc2nnc(-c3ccccn3)[nH]2)cc1F [drawing 1929] | 26 to 50 | 1 to 25
O=C(Nc1nnc(-c2ccccn2)[nH]1)c1ccc2c(c1)CCO2 [drawing 1930] | 0 | 1 to 25
O=C(Cc1c[nH]c2ccccc12)Nc1nnc(-c2ccccn2)[nH]1 [drawing 1931] | 1 to 25 | 26 to 50
Cn1cc(C2CC2C(=O)Nc2nnc(-c3ccccn3)[nH]2)cn1 (stereo not drawn) [drawing 1932] | 1 to 25 | 0
COc1cccc(CC(=O)Nc2nnc(-c3ccccn3)[nH]2)c1 [drawing 1933] | 1 to 25 | 26 to 50
O=C(CCn1ccc2ccccc21)Nc1nnc(-c2ccccn2)[nH]1 [drawing 1934] | 1 to 25 | 1 to 25
O=C(Nc1nnc(-c2ccccn2)[nH]1)c1ccn(-c2ccccc2)n1 [drawing 1935] | 1 to 25 | 1 to 25
Cc1c(C(=O)Nc2nnc(-c3ccccn3)[nH]2)oc2ccccc12 [drawing 1936] | 1 to 25 | 0
CC(Oc1ccccc1Cl)C(=O)Nc1nnc(-c2ccccn2)[nH]1 (stereo not drawn) [drawing 1937] | 1 to 25 | 26 to 50
O=C(Nc1nnc(-c2ccccn2)[nH]1)c1ccn(-c2cccc(F)c2)n1 [drawing 1938] | 0 | 26 to 50
COc1ccc(CCC(=O)Nc2nnc(-c3ccccn3)[nH]2)cc1 [drawing 1939] | 0 | 1 to 25
COc1ccc2c(ccn2CC(=O)Nc2nnc(-c3ccccn3)[nH]2)c1 [drawing 1940] | 1 to 25 | 26 to 50
O=C(CCc1c[nH]c2ccccc12)Nc1nnc(-c2ccccn2)[nH]1 [drawing 1941] | 0 | 51 to 75
O=C(Nc1nnc(-c2ccccn2)[nH]1)c1ccc2ccccc2n1 [drawing 1942] | 0 | 1 to 25
Cc1ccc(CC(=O)Nc2nnc(-c3ccccn3)[nH]2)cc1 [drawing 1943] | 0 | 1 to 25
Cn1cc(-c2nc(C(=O)Nc3nnc(-c4ccccn4)[nH]3)cs2)cn1 [drawing 1944] | 1 to 25 | 51 to 75
Cn1ccc(C(=O)Nc2nnc(-c3ccccn3)[nH]2)cc1=O [drawing 1945] | 1 to 25 | 0
Cc1c(C(=O)Nc2nnc(-c3ccccn3)[nH]2)oc2c1C(=O)CCC2 [drawing 1946] | 0 | 1 to 25
C[C@H](NS(=O)(=O)c1ccccc1F)C(=O)Nc1nnc(-c2ccccn2)[nH]1 [drawing 1947] | 1 to 25 | 51 to 75

Compound | inhibition at 30 µM [1] [%] | inhibition at 30 µM [2] [%]
CC(OCC(F)(F)F)C(=O)Nc1nnc(-c2ccccn2)[nH]1 (stereo not drawn) [drawing 1948] | 1 to 25 | 0
CC(C)c1nc(CC(=O)Nc2nnc(-c3ccccn3)[nH]2)cs1 [drawing 1949] | 0 | 1 to 25
O=C(Nc1nnc(-c2ccccn2)[nH]1)c1ccc(CN2C(=O)CCC2=O)cc1 [drawing 1950] | 1 to 25 | 0
CC(C)c1noc(CCCC(=O)Nc2nnc(-c3ccccn3)[nH]2)n1 [drawing 1951] | 1 to 25 | 0
CC(C)c1noc(CCC(=O)Nc2nnc(-c3ccccn3)[nH]2)n1 [drawing 1952] | 0 | 1 to 25
O=C(Cc1cccs1)Nc1nnc(-c2ccccn2)[nH]1 [drawing 1953] | 1 to 25 | 1 to 25
N#Cc1ccccc1OCC(=O)Nc1nnc(-c2ccccn2)[nH]1 [drawing 1954] | 0 | 1 to 25
O=C(Nc1nnc(-c2ccccn2)[nH]1)C1COc2ccccc2C1 (stereo not drawn) [drawing 1955] | 1 to 25 | 26 to 50
O=C(Nc1nnc(-c2ccccn2)[nH]1)c1ccc(Oc2ccccc2)nc1 [drawing 1956] | 1 to 25 | 26 to 50
Cc1noc(C)c1CC(=O)Nc1nnc(-c2ccccn2)[nH]1 [drawing 1957] | 0 | 1 to 25
O=C(Nc1nnc(-c2ccccn2)[nH]1)C1CC(=O)N(CCc2ccccc2)C1 (stereo not drawn) [drawing 1958] | 0 | 1 to 25
CN(CC(=O)Nc1nnc(-c2ccccn2)[nH]1)S(C)(=O)=O [drawing 1959] | 1 to 25 | 0
O=C(Cc1cccc(F)c1)Nc1nnc(-c2ccccn2)[nH]1 [drawing 1960] | 0 | 1 to 25
O=C(Nc1nnc(-c2ccccn2)[nH]1)c1cccc(NC(=O)C2CCCO2)c1 (stereo not drawn) [drawing 1961] | 0 | 1 to 25
O=C(CC1CCCC1)NCC(=O)Nc1nnc(-c2ccccn2)[nH]1 [drawing 1962] | 1 to 25 | 1 to 25
O=C(Nc1nnc(-c2ccccn2)[nH]1)c1ncoc1-c1cccs1 [drawing 1963] | 1 to 25 | 26 to 50
O=C(Nc1nnc(-c2ccccn2)[nH]1)c1nc(N2CCOCC2)ncc1Cl [drawing 1964] | 0 | 1 to 25
O=C(Nc1nnc(-c2ccccn2)[nH]1)C1Cc2ccccc2O1 (stereo not drawn) [drawing 1965] | 0 | 1 to 25
CC(Oc1ccccc1C#N)C(=O)Nc1nnc(-c2ccccn2)[nH]1 (stereo not drawn) [drawing 1966] | 1 to 25 | 0
CC(Oc1cccc(C#N)c1)C(=O)Nc1nnc(-c2ccccn2)[nH]1 (stereo not drawn) [drawing 1967] | 0 | 1 to 25
CC(Oc1ccc(C(=O)Nc2nnc(-c3ccccn3)[nH]2)cn1)c1ccccc1 (stereo not drawn) [drawing 1968] | 0 | 1 to 25
O=C(Nc1nnc(-c2ccccn2)[nH]1)C1CCCN(c2ncccn2)C1 (stereo not drawn) [drawing 1969] | 1 to 25 | 0

Compound | inhibition at 30 µM [1] [%] | inhibition at 30 µM [2] [%]
O=C(Cc1ccc(F)cc1)Nc1nnc(-c2ccccn2)[nH]1 [drawing 1970] | 1 to 25 | 1 to 25
CC(OCc1ccccc1)C(=O)Nc1nnc(-c2ccccn2)[nH]1 (stereo not drawn) [drawing 1971] | 0 | 1 to 25
O=C(Nc1nnc(-c2ccccn2)[nH]1)C1CCCC(C(F)(F)F)C1 (stereo not drawn) [drawing 1972] | 0 | 1 to 25
O=C(COCc1ccccc1Cl)Nc1nnc(-c2ccccn2)[nH]1 [drawing 1973] | 1 to 25 | 26 to 50
O=C(Nc1nnc(-c2ccccn2)[nH]1)C1CC1c1ccc(F)cc1 (stereo not drawn) [drawing 1974] | 1 to 25 | 1 to 25
Cc1ccc(CC(=O)Nc2nnc(-c3ccccn3)[nH]2)s1 [drawing 1975] | 0 | 1 to 25
Cc1cccc(C(=O)Nc2nnc(-c3ccccn3)[nH]2)n1 [drawing 1976] | 0 | 1 to 25
CC(Oc1ccc(C#N)cc1)C(=O)Nc1nnc(-c2ccccn2)[nH]1 (stereo not drawn) [drawing 1977] | 1 to 25 | 1 to 25
O=C(COc1ccc2c(c1)CCC2)Nc1nnc(-c2ccccn2)[nH]1 [drawing 1978] | 0 | 1 to 25
O=C(Nc1nnc(-c2ccccn2)[nH]1)C1CCCN(c2cnccn2)C1 (stereo not drawn) [drawing 1979] | 1 to 25 | 1 to 25
O=C(Nc1nnc(-c2ccccn2)[nH]1)c1ccc(NC(=O)c2ccccn2)cc1 [drawing 1980] | 1 to 25 | 0
COC(=O)c1cncc(C(=O)Nc2nnc(-c3ccccn3)[nH]2)c1 [drawing 1981] | 1 to 25 | 1 to 25
CCc1ccccc1OCC(=O)Nc1nnc(-c2ccccn2)[nH]1 [drawing 1982] | 0 | 26 to 50
Cc1nc(-c2ccccn2)sc1C(=O)Nc1nnc(-c2ccccn2)[nH]1 [drawing 1983] | 0 | 1 to 25
Cc1nc2nc(C(F)(F)F)nn2c(C)c1CC(=O)Nc1nnc(-c2ccccn2)[nH]1 [drawing 1984] | 1 to 25 | 0
COc1cccc(COCC(=O)Nc2nnc(-c3ccccn3)[nH]2)c1 [drawing 1985] | 1 to 25 | 26 to 50
COc1ccccc1C1CC1C(=O)Nc1nnc(-c2ccccn2)[nH]1 (stereo not drawn) [drawing 1986] | 1 to 25 | 26 to 50
O=C(Cn1c(=O)[nH]c2ccccc21)Nc1nnc(-c2ccccn2)[nH]1 [drawing 1987] | 1 to 25 | 1 to 25
CN(CC(=O)Nc1nnc(-c2ccccn2)[nH]1)Cc1ccccc1 [drawing 1988] | 1 to 25 | 26 to 50
O=C(Nc1nnc(-c2ccccn2)[nH]1)c1cccc(N2CCCS2(=O)=O)c1 [drawing 1989] | 1 to 25 | 1 to 25
CC(C)C(=O)Nc1nc(CC(=O)Nc2nnc(-c3ccccn3)[nH]2)cs1 [drawing 1990] | 1 to 25 | 0
CC(C)(C)c1nc(C(=O)Nc2nnc(-c3ccccn3)[nH]2)cs1 [drawing 1991] | 0 | 1 to 25
